Test results reported in patent US10287295B2, “TGF-β inhibitors” (Rigel Pharmaceuticals, Inc., priority 2015, dated 2019).

How the values were obtained:
[1] = system: TGF-β signaling (TGF-β pSMAD, MPC-11); assay: AlphaScreen SureFire SMAD3 (p-Ser423/425) assay, inhibition of TGF-β signaling; assay type: cell-based; details: Mus musculus, MPC-11, inhibition of TGF-β signaling, p-SMAD3 readout
[2] = system: GDF8 signaling (GDF pSMAD, MPC11); assay: AlphaScreen SureFire SMAD3 (p-Ser423/425) assay, inhibition of GDF8 signaling; assay type: cell-based; details: Mus musculus, MPC-11, inhibition of GDF8 signaling, p-SMAD3 readout

| Compound | IC50 [1] | IC50 [2] |
| --- | --- | --- |
| Cn1cnc(-c2ccc(F)c(F)c2)c1-c1ccc2[nH]ncc2c1 [Compound 64, 5-(4-(3,4-Difluorophenyl)-1-methyl-1H-imidazol-5-yl)-1H-indazole] | 270 nM | 90 nM |
| COc1cccc(-c2nc(N)sc2-c2ccc3[nH]ncc3c2)c1 [Compound 177, 5-(1H-indazol-5-yl)-4-(3-methoxyphenyl)thiazol-2-amine] | 1040 nM | 234 nM |
| COc1ccc(-c2nc(N)sc2-c2ccc3[nH]ncc3c2)cc1 [Compound 157, 5-(1H-indazol-5-yl)-4-(4-methoxyphenyl)thiazol-2-amine] | 160 nM | 25.6 nM |
| Cn1cnc(-c2cccc(Cl)c2)c1-c1ccc2cn[nH]c2c1 [Compound 61, 6-(4-(3-Chlorophenyl)-1-methyl-1H-imidazol-5-yl)-1H-indazole] | 150 nM | 30 nM |
| Cn1cnc(-c2ccc(F)c(F)c2)c1-c1ccc2nccnc2c1 [Compound 68, 6-(4-(3,4-Difluorophenyl)-1-methyl-1H-imidazol-5-yl)quinoxaline] | 2870 nM | 1050 nM |
| Cc1nc(-c2cc(F)c(F)cc2F)c(-c2ccc3ncnn3c2)[nH]1 [Compound 98, 6-(2-Methyl-4-(2,4,5-trifluorophenyl)-1H-imidazol-5-yl)-[1,2,4]triazolo[1,5-a]pyridine] | 190 nM | 50 nM |
| Cc1cccc(-c2nc(C)n(C)c2-c2ccc3ncn(C)c3c2)c1 [Compound 58, 6-(1,2-Dimethyl-4-(m-tolyl)-1H-imidazol-5-yl)-1-methyl-1H-benzo[d]imidazole] | 9640 nM | 990 nM |
| Cc1cc(-c2ncn(C)c2-c2ccc3ncccc3c2)ccc1F [Compound 37, 6-(4-(4-Fluoro-3-methylphenyl)-1-methyl-1H-imidazol-5-yl)quinoline] | 920 nM | 260 nM |
| Cc1cccc(-c2nc(C)n(C)c2-c2ccc3cn[nH]c3c2)c1 [Compound 57, 6-(1,2-Dimethyl-4-(m-tolyl)-1H-imidazol-5-yl)-1H-indazole] | 9210 nM | 710 nM |
| Cc1nc(-c2ccc(F)c(C)c2)c(-c2ccc3ncccc3c2)[nH]1 [Compound 75, 6-(4-(4-Fluoro-3-methylphenyl)-2-methyl-1H-imidazol-5-yl)quinoline] | 4390 nM | 510 nM |
| CCc1nc(-c2cc(C)cc(F)c2)c(-c2ccc3ncnn3c2)[nH]1 [Compound 144, 6-(2-Ethyl-4-(3-fluoro-5-methylphenyl)-1H-imidazol-5-yl)-[1,2,4]triazolo[1,5-a]pyridine] | 1530 nM | 310 nM |
| Fc1ccc(-c2nc[nH]c2-c2ccc3[nH]ncc3c2)cc1 [Compound 10, 5-(4-(4-Fluorophenyl)-1H-imidazol-5-yl)-1H-indazole] | 60 nM | 10 nM |
| Cn1cnc(-c2cccc(Cl)c2)c1-c1ccc2[nH]ncc2c1 [Compound 60, 5-(4-(3-Chlorophenyl)-1-methyl-1H-imidazol-5-yl)-1H-indazole] | 60 nM | 20 nM |
| CCc1nc(-c2cc(C)cc(F)c2)c(-c2ccc3nccn3c2)[nH]1 [Compound 146, 6-(2-Ethyl-4-(3-fluoro-5-methylphenyl)-1H-imidazol-5-yl)imidazo[1,2-a]pyridine] | 5960 nM | 1000 nM |
| COc1ccc(-c2nc(N)sc2-c2ccc3cn[nH]c3c2)cc1 [Compound 173, 5-(1H-indazol-6-yl)-4-(4-methoxyphenyl)thiazol-2-amine] | 898 nM | 124 nM |
| Cc1nc(-c2cc(F)c(F)c(F)c2)c(-c2ccc3ncccc3c2)[nH]1 [Compound 95, 6-(2-Methyl-4-(3,4,5-trifluorophenyl)-1H-imidazol-5-yl)quinoline] | 1880 nM | 300 nM |
| Fc1ccc(-c2nc[nH]c2-c2ccc3ncsc3c2)cc1F [Compound 34, 6-(4-(3,4-Difluorophenyl)-1H-imidazol-5-yl)benzo[d]thiazole] | 140 nM | 70 nM |
| Cc1cc(-c2nc(C)n(C)c2-c2ccc3cn[nH]c3c2)ccc1F [Compound 53, 6-(4-(4-Fluoro-3-methylphenyl)-1,2-dimethyl-1H-imidazol-5-yl)-1H-indazole] | 3340 nM | 780 nM |
| Cc1cccc(-c2nc[nH]c2-c2ccc3ncsc3c2)c1 [Compound 18, 6-(4-(m-Tolyl)-1H-imidazol-5-yl)benzo[d]thiazole] | 150 nM | 40 nM |
| Cn1cnc2ccc(-c3[nH]cnc3-c3cccc(Cl)c3)cc21 [Compound 24, 6-(4-(3-Chlorophenyl)-1H-imidazol-5-yl)-1-methyl-1H-benzo[d]imidazole] | 10 nM | 10 nM |
| Cc1nc(-c2ccc(F)cc2)c(-c2ccc3cn[nH]c3c2)[nH]1 [Compound 78, 6-(4-(4-Fluorophenyl)-2-methyl-1H-imidazol-5-yl)-1H-indazole] | 2470 nM | 290 nM |
| Clc1cccc(-c2nc[nH]c2-c2ccc3ncccc3c2)c1 [Compound 39, 6-(4-(3-Chlorophenyl)-1H-imidazol-5-yl)quinoline] | 390 nM | 190 nM |

| Compound | IC50 [1] | IC50 [2] |
| --- | --- | --- |
| Cc1nc(-c2cccc(Cl)c2)c(-c2ccc3ncnn3c2)[nH]1 [Compound 103, 6-(4-(3-Chlorophenyl)-2-methyl-1H-imidazol-5-yl)-[1,2,4]triazolo[1,5-a]pyridine] | 690 nM | 130 nM |
| CCc1nc(-c2ccc(F)c(F)c2)c(-c2ccc3[nH]ncc3c2)[nH]1 [Compound 130, 5-(4-(3,4-Difluorophenyl)-2-ethyl-1H-imidazol-5-yl)-1H-indazole] | 2320 nM | 650 nM |
| c1ccc(-c2nc[nH]c2-c2ccc3cn[nH]c3c2)cc1 [Compound 2, 6-(4-Phenyl-1H-imidazol-5-yl)-1H-indazole] | 200 nM | 60 nM |
| CCc1nc(-c2cccc(Cl)c2)c(-c2ccc3ncsc3c2)[nH]1 [Compound 126, 6-(4-(3-Chlorophenyl)-2-ethyl-1H-imidazol-5-yl)benzo[d]thiazole] | 340 nM | 90 nM |
| Nc1nc(-c2cccc(F)c2)c(-c2ccc3nccnc3c2)s1 [Compound 183, 4-(3-fluorophenyl)-5-(quinoxalin-6-yl)thiazol-2-amine] | 1480 nM | 365 nM |
| Cc1cccc(-c2nc[nH]c2-c2ccc3nccn3c2)c1 [Compound 19, 6-(4-(m-Tolyl)-1H-imidazol-5-yl)imidazo[1,2-a]pyridine] | 730 nM | 150 nM |
| CCc1nc(-c2cccc(C)c2)c(-c2ccc3nccn3c2)[nH]1 [Compound 117, 6-(2-Ethyl-4-(m-tolyl)-1H-imidazol-5-yl)imidazo[1,2-a]pyridine] | 2180 nM | 330 nM |
| Cc1nc(-c2ccc(F)c(F)c2)c(-c2ccc3nccnc3c2)[nH]1 [Compound 89, 6-(4-(3,4-Difluorophenyl)-2-methyl-1H-imidazol-5-yl)quinoxaline] | 4190 nM | 430 nM |
| Cc1cc(-c2nc(N)sc2-c2ccc3nccnc3c2)ccc1F [Compound 158, 4-(4-fluoro-3-methylphenyl)-5-(quinoxalin-6-yl)thiazol-2-amine] | 228 nM | 36 nM |
| Cc1cccc(-c2ncn(C)c2-c2ccc3nccn3c2)c1 [Compound 45, 6-(1-Methyl-4-(m-tolyl)-1H-imidazol-5-yl)imidazo[1,2-a]pyridine] | 1780 nM | 440 nM |
| Nc1nc(-c2cccc(C(F)(F)F)c2)c(-c2ccc3[nH]ncc3c2)s1 [Compound 175, 5-(1H-indazol-5-yl)-4-(3-(trifluoromethyl)phenyl)thiazol-2-amine] | 938 nM | 154 nM |
| COc1cccc(-c2nc(N)sc2-c2ccc3ncsc3c2)c1 [Compound 186, 5-(benzo[d]thiazol-6-yl)-4-(3-methoxyphenyl)thiazol-2-amine] | 1110 nM | 478 nM |
| Cc1cccc(-c2ncsc2-c2ccc3cn[nH]c3c2)c1 [Compound 153, 5-(1H-indazol-6-yl)-4-(m-tolyl)thiazole] | 207 nM | 11.3 nM |
| c1ccc(-c2nc[nH]c2-c2ccc3[nH]ncc3c2)cc1 [Compound 1, 5-(4-Phenyl-1H-imidazol-5-yl)-1H-indazole] | 230 nM | 70 nM |
| Cc1cc(-c2nc[nH]c2-c2ccc3cn[nH]c3c2)ccc1F [Compound 4, 6-(4-(4-Fluoro-3-methylphenyl)-1H-imidazol-5-yl)-1H-indazole] | 20 nM | 10 nM |
| Cc1nc(-c2ccc(F)c(F)c2)c(-c2ccc3[nH]ncc3c2)[nH]1 [Compound 83, 5-(4-(3,4-Difluorophenyl)-2-methyl-1H-imidazol-5-yl)-1H-indazole] | 1330 nM | 130 nM |
| Fc1cccc(-c2nc[nH]c2-c2ccc3ncsc3c2)c1 [Compound 30, 6-(4-(3-Fluorophenyl)-1H-imidazol-5-yl)benzo[d]thiazole] | 320 nM | 270 nM |
| Cc1nc(-c2ccc(F)cc2)c(-c2ccc3ncsc3c2)[nH]1 [Compound 80, 6-(4-(4-Fluorophenyl)-2-methyl-1H-imidazol-5-yl)benzo[d]thiazole] | 1630 nM | 220 nM |
| Cc1nc(-c2ccc(F)c(F)c2)c(-c2ccc3nccn3c2)[nH]1 [Compound 87, 6-(4-(3,4-Difluorophenyl)-2-methyl-1H-imidazol-5-yl)imidazo[1,2-a]pyridine] | 3460 nM | 330 nM |
| CCc1nc(-c2ccc(F)c(F)c2)c(-c2ccc3cn[nH]c3c2)[nH]1 [Compound 131, 6-(4-(3,4-Difluorophenyl)-2-ethyl-1H-imidazol-5-yl)-1H-indazole] | 3910 nM | 920 nM |
| CCc1nc(-c2ccc(F)cc2)c(-c2ccc3[nH]ncc3c2)[nH]1 [Compound 119, 5-(2-Ethyl-4-(4-fluorophenyl)-1H-imidazol-5-yl)-1H-indazole] | 4740 nM | 410 nM |
| Cn1cnc2ccc(-c3[nH]cnc3-c3cccc(F)c3)cc21 [Compound 29, 6-(4-(3-Fluorophenyl)-1H-imidazol-5-yl)-1-methyl-1H-benzo[d]imidazole] |  | 290 nM |
